These results are taken from patent US11439633B2, “Tetrahydroquinoline derivatives as P2X7 receptor antagonists” (RaQualia Pharma Inc., priority 2017, dated 2022).

Chain of human P2X7 (Q99572 whole entry): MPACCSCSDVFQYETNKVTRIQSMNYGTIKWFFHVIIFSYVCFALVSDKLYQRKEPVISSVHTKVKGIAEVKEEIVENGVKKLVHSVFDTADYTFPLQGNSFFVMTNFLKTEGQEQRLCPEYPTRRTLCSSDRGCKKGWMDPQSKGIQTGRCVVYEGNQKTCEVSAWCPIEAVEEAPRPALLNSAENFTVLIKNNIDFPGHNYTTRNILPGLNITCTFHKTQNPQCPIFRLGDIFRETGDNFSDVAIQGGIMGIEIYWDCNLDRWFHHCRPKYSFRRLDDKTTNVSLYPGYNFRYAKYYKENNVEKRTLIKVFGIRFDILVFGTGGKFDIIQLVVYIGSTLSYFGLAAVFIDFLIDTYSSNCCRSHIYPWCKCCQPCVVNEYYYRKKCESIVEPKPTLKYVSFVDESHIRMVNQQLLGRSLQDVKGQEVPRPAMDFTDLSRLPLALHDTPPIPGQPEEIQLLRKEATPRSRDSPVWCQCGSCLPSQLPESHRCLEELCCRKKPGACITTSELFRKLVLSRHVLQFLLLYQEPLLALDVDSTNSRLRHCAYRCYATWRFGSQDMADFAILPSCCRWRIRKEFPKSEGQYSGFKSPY
Chain of rat P2X7 (Q64663 whole entry): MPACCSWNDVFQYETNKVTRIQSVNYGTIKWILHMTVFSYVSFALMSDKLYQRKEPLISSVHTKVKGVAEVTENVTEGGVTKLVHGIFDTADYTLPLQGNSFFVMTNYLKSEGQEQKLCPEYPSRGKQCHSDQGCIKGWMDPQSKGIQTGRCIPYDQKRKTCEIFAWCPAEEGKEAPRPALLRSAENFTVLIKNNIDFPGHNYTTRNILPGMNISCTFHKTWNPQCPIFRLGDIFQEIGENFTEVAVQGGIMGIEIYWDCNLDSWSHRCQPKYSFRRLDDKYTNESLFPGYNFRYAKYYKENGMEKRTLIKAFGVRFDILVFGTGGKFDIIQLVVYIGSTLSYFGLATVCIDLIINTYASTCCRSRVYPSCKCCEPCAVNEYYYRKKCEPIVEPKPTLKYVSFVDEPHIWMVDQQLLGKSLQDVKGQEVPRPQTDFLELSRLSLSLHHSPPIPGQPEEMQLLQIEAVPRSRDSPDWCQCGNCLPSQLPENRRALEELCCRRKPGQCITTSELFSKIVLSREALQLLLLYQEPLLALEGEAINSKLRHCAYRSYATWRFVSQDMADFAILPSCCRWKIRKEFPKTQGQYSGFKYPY

The target in one assay is human P2X7 (Homo sapiens (Human), UniProt Q99572). Kind of assay: Human P2X7 functional assay (Ca2+ influx, Fluo-4, FDSS, BzATP activation). It is filed as cell-based. Conditions: antagonistic activity with respect to the human P2X7 receptor; BzATP final concentration 80 microM; 7-point dose-response. How it is done:
Human P2X7 Functional Assay
(§1) The functional activity of compounds was determined by measuring changes in intracellular calcium concentration using a Ca^2+-sensitive fluorescent dye, Fluo-4 (Molecular Probes). The changes in fluorescent signal were monitored by the cell imaging technology by Hamamatsu Photonics's Functional Drug Screening System (FDSS). Increases in intracellular Ca^2+ concentration were readily detected upon activation with BzATP.
HEK293 cells stably expressing human P2X7 (GenBank accession number BC011913) carrying a C-terminal FLAG tag were grown in T225 flasks, in a 5% CO2 humidified incubator to about 80% confluence. Media composition consisted of Dulbecco's Modified Eagle Medium (high glucose), 10% fetal bovine serum ([…]), 100 units/[…] Penicillin, 100 microg/mL Streptomycin and 250 microg/mL Geneticine.
1. Plate-out HEK293-human P2X7 cells (40 microL medium containing 10,000 cells per well) into poly-D-lysine coated 384-well plates (Corning) at 24 h prior to assay.
2. Incubate at 37° C. in 5% CO2.
3. Incubate the plate at 37° C. in 5% CO2 for 1 h.
5. Test compounds were prepared at 100× the test concentration in DMSO by serial dilution with Biomek-FX liquid handling instrument. 33× diluted compound solutions in assay buffer were prepared in intermediate compound plate with Biomek-NX liquid handling instrument. A further 3× dilution occurred in below steps 6 and 7.
6. Add 20 microL of 33× diluted compound solutions into each well and leave the plate for 10 min under the dark at room temperature.
7. Measure activity by FDSS as follows: • Set the assay plate on the stacker of FDSS. • Start the detection of fluorescence intensity at 540 nm by 480 nm exicitation. • After 30 seconds, add 20 microL of assay buffer containing 240 microM BzATP (final concentration 80 microM).
IC50 values for compounds of the present invention were determined from 7-point dose-response studies. Curves were generated using the average of duplicate wells for each data point. Finally, the IC50 values are calculated with the best-fit dose curve determined by XLfit (ID Business Solutions Ltd.).
With `O=C(NCc1c(Cl)cc(Cl)cc1CO)C1CCC(O)c2ncccc21` (stereo not drawn) [Example 9, N-(2,4-dichloro-6-(hydroxymethyl)benzyl)-8-hydroxy-5,6,7,8-tetrahydroquinoline-5-carboxamide], the IC50 is below 50 nM.

Molecule `Cc1cc(Cl)cc(Cl)c1CNC(=O)[C@@]1(F)CC[C@@H](O)c2ncccc21` [Example 126, (5R,8R)-N-(2,4-dichloro-6-methylbenzyl)-5-fluoro-8-hydroxy-5,6,7,8-tetrahydroquinoline-5-carboxamide] gave an IC50 below 50 nM.

Molecule `Cc1cc(Cl)cc(Cl)c1CNC(=O)[C@]1(F)CC[C@H](O)c2ncccc21` [Example 127, (5S,8S)-N-(2,4-dichloro-6-methylbenzyl)-5-fluoro-8-hydroxy-5,6,7,8-tetrahydroquinoline-5-carboxamide] gave a concentration for half-maximal inhibition (IC50) below 50 nM.

In the case of `O=C(NCc1ccc(F)cc1C(F)(F)F)[C@]1(F)CC[C@H](O)c2ncccc21` [Example 144, (5S,8S)-5-fluoro-N-(4-fluoro-2-(trifluoromethyl)benzyl)-8-hydroxy-5,6,7,8-tetrahydroquinoline-5-carboxamide], the IC50 was below 50 nM.

In the case of `O=C(NCc1c(F)cc(Cl)cc1Cl)[C@]1(F)CC[C@H](O)c2ncccc21` [Example 152, (5S,8S)-N-(2,4-dichloro-6-fluorobenzyl)-5-fluoro-8-hydroxy-5,6,7,8-tetrahydroquinoline-5-carboxamide], the IC50 is below 50 nM.

`Cc1cccc(Cl)c1CNC(=O)[C@]1(F)CC[C@H](O)c2ncccc21` [Example 161, (5S,8S)-N-(2-chloro-6-methylbenzyl)-5-fluoro-8-hydroxy-5,6,7,8-tetra-hydroquinoline-5-carbox-amide]: the IC50 was below 50 nM.

`O=C(NCc1ccc(F)c(F)c1Cl)[C@]1(F)CC[C@H](O)c2ncccc21` [Example 174, (5S,8S)-N-(2-chloro-3,4-difluorobenzyl)-5-fluoro-8-hydroxy-5,6,7,8-tetra-hydroquinoline-5-carboxamide] displayed a half-inhibitory concentration (IC50) below 50 nM.

Take `O=C(NCc1cccc(C(F)(F)F)c1F)[C@]1(F)CC[C@H](O)c2ncccc21` [Example 175, (5S,8S)-5-fluoro-N-(2-fluoro-3-(trifluoromethyl)benzyl)-8-hydroxy-5,6,7,8-tetrahydroquinoline-5-carboxamide]: the IC50 was below 50 nM.

For `O=C(NCc1cc(Br)ccc1Cl)[C@]1(F)CC[C@H](O)c2ncccc21` [Example 181, (5S,8S)-N-(5-bromo-2-chlorobenzyl)-5-fluoro-8-hydroxy-5,6,7,8-tetra-hydroquinoline-5-carbox-amide], the IC50 is below 50 nM.

The molecule `O=C(NCc1c(F)cccc1C(F)(F)F)[C@]1(F)CC[C@H](O)c2ncccc21` [Example 186, (5S,8S)-5-fluoro-N-(2-fluoro-6-(trifluoromethyl)benzyl)-8-hydroxy-5,6,7,8-tetrahydroquinoline-5-carboxamide] came in with a 50% inhibitory concentration (IC50) below 50 nM.

Consider `O=C(NCCc1ccc(Cl)cc1Cl)[C@]1(F)CC[C@H](O)c2ncccc21` [Example 191, (5S,8S)-N-(2,4-dichloro-phenethyl)-5-fluoro-8-hydroxy-5,6,7,8-tetrahydro-quinoline-5-carboxamide], for which the IC50 was below 50 nM.

As for `C[C@]1(O)CC[C@@](F)(C(=O)NCc2c(F)cc(Cl)cc2Cl)c2cccnc21` [Example 265, (5S,8S)-N-(2,4-dichloro-6-fluorobenzyl)-5-fluoro-8-hydroxy-8-methyl-5,6,7,8-tetrahydroquinoline-5-carboxamide], the IC50 was below 50 nM.

With `C[C@]1(O)CC[C@@](F)(C(=O)NCc2c(F)cc(F)cc2Cl)c2cccnc21` [Example 266, (5S,8S)-N-(2-chloro-4,6-difluorobenzyl)-5-fluoro-8-hydroxy-8-methyl-5,6,7,8-tetrahydroquinoline-5-carboxamide], the concentration for half-maximal inhibition (IC50) was below 50 nM.

In turn, `C[C@]1(O)CC[C@@](F)(C(=O)NCc2ccc(Cl)c(F)c2F)c2cccnc21` [Example 267, (5S,8S)-N-(4-chloro-2,3-difluorobenzyl)-5-fluoro-8-hydroxy-8-methyl-5,6,7,8-tetrahydroquinoline-5-carboxamide] returned a half-inhibitory concentration (IC50) below 50 nM.

On to `C[C@]1(O)CC[C@@](F)(C(=O)NC2CC2c2ccc(Cl)cc2Cl)c2cccnc21` (stereo partly drawn) [Example 273, (5S,8S)-N-((trans)-2-(2,4-dichlorophenyl)cyclopropyl)-5-fluoro-8-hydroxy-8-methyl-5,6,7,8-tetrahydro-quinoline-5-carboxamide], for which the half-inhibitory concentration (IC50) is below 50 nM.

With `CO[C@H]1CC[C@@](F)(C(=O)NCc2c(F)cc(Cl)cc2Cl)c2cccnc21` [Example 335, (5S,8S)-N-(2,4-dichloro-6-fluorobenzyl)-5-fluoro-8-methoxy-5,6,7,8-tetrahydroquinoline-5-carboxamide], the concentration for half-maximal inhibition (IC50) was below 50 nM.

In turn, `CS(=O)(=O)C1CC[C@@](F)(C(=O)NCc2ccc(Cl)cc2Cl)c2cccnc21` (stereo partly drawn) [Example 350, (5S)-N-(2,4-dichlorobenzyl)-5-fluoro-8-(methylsulfonyl)-5,6,7,8-tetrahydroquinoline-5-carboxamide] registered an IC50 below 50 nM.

The next assay concerns the target rat P2X7 (Rattus norvegicus (Rat), UniProt Q64663). As to the kind of experiment: Rat P2X7 functional assay (Ca2+ influx, Fluo-4, FDSS, BzATP activation). The assay is classed as cell-based. Conditions: HEK293 cells stably expressing rat P2X7; BzATP final 10 microM; read-out: Antagonistic activities with respect to the rat P2X7 receptor (IC50). As to the method: Rat P2X7 Functional Assay
as §1
HEK293 cells stably expressing rat P2X7 (GenBank accession number NM_019256) were grown in Corning CellBIND cell culture flasks, in a 5% CO2 humidified incubator to about 80% confluence. Media composition consisted of Dulbecco's Modified Eagle Medium (high glucose), 10% fetal bovine serum ([…]), 100 units/[…] Penicillin, 100 microg/mL Streptomycin and 250 microg/mL Geneticine.
1. […]
7. Measure activity by FDSS as follows: • Set the assay plate on the stacker of FDSS. • Start the detection of fluorescence intensity at 540 nm by 480 nm exicitation. • After 30 seconds, add 20 microL of assay buffer containing 30 microM BzATP (final 10 microM).
IC50 values for compounds of the present invention were determined from 7-point dose-response studies. […] Finally, the IC50 values are calculated with the best-fit dose curve determined by XLfit (ID Business Solutions Ltd.).
`Cc1cc(Cl)cc(Cl)c1CNC(=O)[C@@H]1CC[C@H](O)c2ncccc21` [Example 64, (5R,8S)-N-(2,4-dichloro-6-methylbenzyl)-8-hydroxy-5,6,7,8-tetrahydroquinoline-5-carboxamide]: the IC50 is below 1000 nM.

The IC50 is the concentration at which inhibition is half-maximal.
